Several values for one entry are separate records, joined by “and”; a condition that tells them apart may be missing. Identical values can stand only once.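 1) Cells in 96-well plates. 2) Compound, 48 h, 5 concentrations. 3) Linear interpolation between surrounding doses. 4) Unreached endpoint = highest concentration. Here, GI50 denotes the concentration required for 50% inhibition of growth. Definition used: TGI = concentration required for complete inhibition of growth.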
How the values were obtained:
Experiment in all cases: inhibition of tumour cell growth, NCI panel, 48 h
[1] = tested on: 786-0 renal
[2] = tested on: HOP-92 NSCLC
[3] = tested on: HT29 colon
[4] = tested on: K-562 leukemia
[5] = tested on: OVCAR-5 ovarian
[6] = tested on: SF-268 CNS
[7] = tested on: SF-295 CNS
[8] = tested on: T-47D breast
[9] = tested on: U251 CNS
[10] = tested on: SK-MEL-28 melanoma

Row | Structure (SMILES) | TGI [1] | TGI [2] [µM] | TGI [3] [µM] | TGI [4] [µM] | TGI [5] | TGI [6] [µM] | TGI [7] | TGI [8] | TGI [9] [µM] | TGI [10] | GI50 [4] [µM] | GI50 [5] | GI50 [6] | GI50 [7] | GI50 [2] [µM] | GI50 [3] [µM] | GI50 [10] [µM] | GI50 [8] [µM] | GI50 [9] [µM]
1 | CCc1n[nH]c(=O)n1N1C(=O)C2CC=CCC2C1=O (stereo not given) | > 100 µM | > 100 | > 100 | > 100 | > 100 µM | > 100 | > 100 µM | > 100 µM | > 100 | – | – | – | – | – | – | – | – | – | –
2 | COC(OC)c1cccc2c1C1(O)CCC3(CC21)OCCCCO3 (stereo not given) | > 100 µM | – | > 100 | > 100 | > 100 µM | > 100 | > 100 µM | – | > 100 | > 100 µM | – | – | – | – | – | – | – | – | –
3 | O=C(CN1CCN(C(=O)OCc2ccccc2)CCN(CC(=O)N2CCCCC2)CCN(C(=O)OCc2ccccc2)CC1)N1CCCCC1 | > 45.9 µM | 27.2 | 28.6 | 32.7 | 48.8 µM | 31.8 | 41.1 µM | 38.8 µM | 34.4 | 27.9 µM | – | – | – | – | – | – | – | – | –
4 | CC(C)OP(=O)(CN(C)/C(F)=N\C(F)(F)F)OC(C)C | > 100 µM | > 100 | > 100 | > 100 | > 100 µM | > 100 | > 100 µM | > 100 µM | > 100 | > 100 µM | – | – | – | – | – | – | – | – | –
5 | COc1cc([C@@H]2c3cc4c(cc3[C@@H](NCCNCCO)[C@H]3COC(=O)[C@H]23)OCO4)cc(OC)c1O | 3.02 µM and 3.48 µM | – | > 29.9 | > 100 | 51.2 µM and 25.5 µM | 51.8 | > 29 µM and 7.12 µM | 11.9 µM and 8.93 µM | 5.35 | 9.5 µM and 9.02 µM | 1.45 | 14 µM and 5.18 µM | 0.761 µM and 1.59 µM | 1.61 µM and 0.719 µM | – | – | – | – | –
6 | c1ccc(C2SCC3=Nc4ccccc4CN32)cc1 (stereo not given) | > 100 µM | > 100 | 50.7 | > 100 | > 100 µM | > 100 | 70.8 µM | > 100 µM | > 100 | > 100 µM | – | – | – | – | – | – | – | – | –
7 | COP(C)(=O)/C(Cc1ccccc1)=N\O (stereo not given) | – | > 100 | > 100 | > 100 | > 100 µM | – | > 100 µM | > 100 µM | > 100 | > 100 µM | – | – | – | – | – | – | – | – | –
8 | O=C1OCC(C#Cc2ccccc2)=C1Cl | – | 6.84 | 12.9 | 14.6 | 15 µM | 72.7 | > 100 µM | 30.3 µM | 3.13 | 5.16 µM | 1.86 | 3.59 µM | 6.82 µM | 21.6 µM | 2.14 | 1.05 | 1.7 | 12.6 | 1.59
9 | CCOc1ccc2c(c1)/C(=C(\C(Cl)=C(Cl)Cl)[N+](=O)[O-])N2 | > 100 µM | – | > 100 | > 100 | > 100 µM | > 100 | > 100 µM | > 100 µM | > 100 | > 100 µM | – | – | – | – | – | – | – | – | –
10 | O=C(N/N=C1\CCc2ccccc2C1)N/N=C1\CCc2ccccc2C1 | > 10 µM | – | > 10 | > 10 | > 10 µM | > 10 | > 10 µM | > 10 µM | > 10 | – | – | – | – | – | – | – | – | – | –
11 | CCOc1ccccc1/C=C1\NC(=O)N(/C=C2\C(=O)Oc3ccccc3C2=O)C1=O | > 100 µM | 67.9 | > 100 | – | > 100 µM | > 100 | > 100 µM | – | > 100 | > 100 µM | – | – | – | – | – | – | – | – | –
12 | CC(NS(C)(=O)=O)c1ccccc1 (stereo not given) | > 100 µM | – | > 100 | > 100 | > 100 µM | – | > 100 µM | > 100 µM | > 100 | > 100 µM | – | – | – | – | – | – | – | – | –
13 | COc1ccc(Cc2nc3cc(C(F)(F)F)ccc3n2CCCN(C)C)cc1 | – | > 100 | 39.9 | 34.4 | > 100 µM | 70.9 | 37.5 µM | 32.3 µM | 31.9 | 34.6 µM | – | – | – | – | – | – | – | – | –
14 | O=C(c1cc(Cl)cc(Cl)c1)N(C(=S)OC12CC3CC(CC(C3)C1)C2)c1ccccc1 | > 100 µM | > 100 | > 100 | – | > 100 µM | > 100 | > 100 µM | > 100 µM | > 100 | > 100 µM | – | – | – | – | – | – | – | – | –
15 | NC(=O)CCC(NCc1c2ccccc2[n+]([O-])c2ccccc12)C(=O)O (stereo not given) | > 100 µM | – | > 100 | > 100 | > 100 µM | > 100 | > 100 µM | – | > 100 | > 100 µM | – | – | – | – | – | – | – | – | –
16 | CCP(=O)(CC)C(Cl)(Cl)C(O)C(C)(C)C (stereo not given) | – | > 100 | > 100 | > 100 | > 100 µM | – | > 100 µM | > 100 µM | > 100 | > 100 µM | – | – | – | – | – | – | – | – | –
17 | C=C=C(C)[Si](C)(C)C | > 100 µM | – | > 100 | > 100 | > 100 µM | > 100 | > 100 µM | > 100 µM | > 100 | > 100 µM | – | – | – | – | – | – | – | – | –
18 | Cc1ccc(C(=O)C(C)N)cc1 (stereo not given) | > 100 µM | > 100 | > 100 | > 100 | > 100 µM | > 100 | > 100 µM | – | > 100 | > 100 µM | – | – | – | – | – | – | – | – | –
19 | CC(=O)OC1CC2CCC1(C)C2(C)C (stereo not given) | > 100 µM | – | > 100 | > 100 | > 100 µM | > 100 | > 100 µM | > 100 µM | > 100 | > 100 µM | – | – | – | – | – | – | – | – | –
20 | COC(=O)NCCc1[nH]nc2c1C(=O)C=C(Nc1ccccc1)C2=O | > 100 µM | 95.5 | > 100 | > 100 | > 100 µM | > 100 | > 100 µM | > 100 µM | 42.2 | – | – | – | – | – | – | – | – | – | –
21 | C1COC(NC(C2CC2)C2CC2)=N1 | > 100 µM | > 100 | > 100 | > 100 | > 100 µM | – | > 100 µM | > 100 µM | > 100 | > 100 µM | – | – | – | – | – | – | – | – | –
22 | O=P(O)(O)C(CSc1ccccc1)P(=O)(O)O | – | > 100 | > 100 | > 100 | > 100 µM | > 100 | > 100 µM | – | > 100 | > 100 µM | – | – | – | – | – | – | – | – | –
23 | Cc1cccc(Nc2cn(COCc3ccccc3)c(=O)[nH]c2=O)c1 | > 100 µM | > 100 | > 100 | > 100 | > 100 µM | > 100 | > 100 µM | – | > 100 | > 100 µM | – | – | – | – | – | – | – | – | –

Source: PubChem BioAssay (NCI)
